{"source": "patent US7094785B1", "about": "“Method of treating polycythemia vera” (Cornell Research Foundation, Inc., priority 2002, dated 2006)", "origin": "cited, not measured here", "system": "essential thrombocythemia or myelofibrosis", "note": "Structures can show the parent of a compound that is named as a salt.", "data": [{"smiles": "Cc1ccc(NC(=O)c2ccc(CN3CCN(C)CC3)cc2)cc1Nc1nccc(-c2cccnc2)n1", "note": "[imatinib mesylate, N-{5-[4-(4-methyl-piperazino-methyl)-benzoylamido]-2-methylphenyl}-4-(3-pyridyl)-2-pyrimidine-amine]", "values": [{"measurement": "effectiveness in other myeloproliferative disorders", "result": "not effective"}]}]}
